Data from paper PMC6542772, “Plant Cytosolic Ascorbate Peroxidase with Dual Catalytic Activity Modulates Abiotic Stress Tolerances” (iScience, 2019).

Legend:
Format in all cases: biochemical
[1] = target: T1, CytAPX1 from G. max (Gm) (Glycine max, UniProt Q43758); experiment: APX activity assay, in-gel and in solution; details: H2O2 co-substrate
T1 construct: gene apx1; recombinant from E. coli, purified
T1 sequence (Q43758 1-250): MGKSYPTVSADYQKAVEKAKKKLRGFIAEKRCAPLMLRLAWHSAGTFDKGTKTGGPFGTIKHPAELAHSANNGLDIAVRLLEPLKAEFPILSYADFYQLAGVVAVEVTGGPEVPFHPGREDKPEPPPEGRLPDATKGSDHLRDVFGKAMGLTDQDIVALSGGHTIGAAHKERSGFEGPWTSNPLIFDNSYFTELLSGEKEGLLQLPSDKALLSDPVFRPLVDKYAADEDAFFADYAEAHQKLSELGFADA

[2] = target: T2, CytAPX1 from O. sativa (Os) (Oryza sativa, UniProt Q10N21); experiment: APX activity assay, in-gel and in solution; details: H2O2 co-substrate
T2 construct: gene APX1; recombinant from E. coli, purified
T2 sequence (Q10N21 2-250): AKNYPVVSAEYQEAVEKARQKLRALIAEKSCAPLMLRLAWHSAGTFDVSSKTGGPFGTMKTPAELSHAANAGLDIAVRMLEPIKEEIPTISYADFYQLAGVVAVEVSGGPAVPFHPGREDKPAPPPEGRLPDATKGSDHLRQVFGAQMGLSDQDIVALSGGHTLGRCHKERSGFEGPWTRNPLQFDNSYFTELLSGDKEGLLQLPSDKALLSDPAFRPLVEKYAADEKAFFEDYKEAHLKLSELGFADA

[3] = target: T3, AtCytAPX1 (Arabidopsis thaliana, UniProt Q05431); experiment: APX activity assay, in-gel and in solution; details: H2O2 co-substrate
T3 construct: gene APX1; ~27 kDa; MBP fusion from E. coli, MBP removed by factor Xa
T3 sequence (Q05431 1-250): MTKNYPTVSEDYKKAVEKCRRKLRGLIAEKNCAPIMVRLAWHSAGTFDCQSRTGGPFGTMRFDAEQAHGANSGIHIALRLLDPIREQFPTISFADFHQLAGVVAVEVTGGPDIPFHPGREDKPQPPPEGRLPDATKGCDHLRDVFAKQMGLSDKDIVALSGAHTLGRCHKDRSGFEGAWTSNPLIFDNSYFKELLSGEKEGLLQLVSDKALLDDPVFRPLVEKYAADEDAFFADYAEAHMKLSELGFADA

[4] = target: T4, OgCytAPX1 (Oncidium cytosolic ascorbate peroxidase 1) (Oncidium hybrid cultivar, UniProt B8XF08); experiment: enzyme kinetics, Lineweaver-Burk; details: H2O2 co-substrate; APX activity
T4 construct: full length, 250 residues, ~27 kDa; cloned from pseudobulb mRNA; MBP fusion (pMAL-c5x) from E. coli BL21, MBP removed by factor Xa
T4 sequence (B8XF08 entry or part of it): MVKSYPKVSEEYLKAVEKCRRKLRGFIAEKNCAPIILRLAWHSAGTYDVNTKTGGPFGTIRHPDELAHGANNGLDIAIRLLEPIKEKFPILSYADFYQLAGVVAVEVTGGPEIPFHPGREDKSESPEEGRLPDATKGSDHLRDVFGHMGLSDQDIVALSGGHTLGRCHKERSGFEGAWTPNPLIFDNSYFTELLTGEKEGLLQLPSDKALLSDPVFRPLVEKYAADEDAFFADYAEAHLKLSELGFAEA

APX activity assay, in-gel and in solution [3]: AtCytAPX1 displayed only APX activity
Km [4]: 616 µM
SMILES: O=C1O[C@H]([C@@H](O)CO)C(O)=C1O [AsA]
APX activity assay, in-gel and in solution [1]: Recombinant proteins from G. max, O. sativa, and Z. mays displayed both AsA and GSH
APX activity assay, in-gel and in solution [2]: Recombinant proteins from G. max, O. sativa, and Z. mays displayed both AsA and GSH
